Experimental data reported in paper PMC8269059, “Glycyrrhizin Derivatives Suppress Cancer Chemoresistance by Inhibiting Progesterone Receptor Membrane Component 1” (Cancers, 2021).
Like-named read-outs stand apart in the source and are kept apart here.

Legend:
[1] = tested on: EGF signaling; assay: EGF signaling (western blot) in HuH7 cells; type: cell-based, human; settings: HuH7, EGF for 5 min
Description: For analysis of EGFR signaling, cells were incubated overnight with GL or GlucoGL, and then EGF (100 ng/mL) was added for 5 min. Cells were lysed with RIPA buffer, and the lysates were subjected to SDS-PAGE and visualized through western blotting using antibodies against PGRMC1, EGFR, phospho-Y1068 EGFR, AKT, phospho-S473AKT, ERK, and phospho-T185 Y187 ERK.

[2] = biological target: T1, interaction between PGRMC1 and CYP3A4 (Homo sapiens, UniProt O00264); assay: In vitro binding assay between PGRMC1 and CYP3A4; settings: purified proteins, co-IP
T1 construct: FLAG-PGRMC1 (a.a. 44-195); Sigma (CYP3A4 only) C4982 (CYP3A4 only)
T1 sequence (O00264 44-195): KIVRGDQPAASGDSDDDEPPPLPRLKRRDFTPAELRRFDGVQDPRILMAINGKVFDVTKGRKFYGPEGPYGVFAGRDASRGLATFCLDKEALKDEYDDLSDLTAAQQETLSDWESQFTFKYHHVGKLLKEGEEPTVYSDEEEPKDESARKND
Description: For in vitro binding assays between PGRMC1 and CYP3A4, 1 μg of purified CYP3A4 proteins (Sigma: C4982) were incubated with 10 μg of FLAG-PGRMC1 (a.a. 44-195) treated with or without GL or GlucoGL in 500 μL of binding buffer containing 20 mM HEPES-NaOH (pH 7.9), 100 mM NaCl, 0.2 mM EDTA, 10% glycerol, and 0.1% NP40 for 60 min at room temperature. Then, 10 μL of equilibrated anti-FLAG (M2) agarose was added to the mixture, which was then incubated for 60 min at room temperature. Bound proteins were washed three times with 200 μL of binding buffer and eluted with 10 μL of 2 μg/mL FLAG elution peptide (Sigma: F4799). The eluates were subjected to SDS–PAGE and visualized by Western blotting using antibodies against CYP3A4 (Santa Cruz: sc-53850) and FLAG.

[3] = tested on: EGF uptake in HCT116 cells; assay: Alexa Fluor 488 EGF uptake in HCT116 cells; type: cell-based, human; settings: HCT116, microscopy and flow cytometry, 5 min, vs control cells
Description: (§1) For the analysis of EGF and LDL uptake, HCT116 cells were incubated with serum-free DMEM supplemented with Alexa Fluor 488 EGF complex or Alexa Fluor 488 acetylated LDL to a final concentration of 1 µg/L at 37 °C for 5 min. For immunofluorescence microscopy analyses, HCT116 cells treated with Alexa Fluor 488-labeled EGF or LDL were fixed with 4% paraformaldehyde for 20 min and incubated in 10 mg/L DAPI for 15 min. The cells were observed using a BZ-x800 fluorescence microscope (Keyence, IL, USA). For flow cytometry analysis, HCT116 cells treated with Alexa Fluor 488-labeled EGF or LDL were detached using trypsin/EDTA and suspended in PBS. The mean fluorescent intensity per 10,000 cells was analyzed using a flow cytometer (Gallios, Beckman Coulter Life Science, Pasadena, CA, USA). The data were analyzed using Kaluza 2.1 analysis software (Beckman Coulter Life Science).

[4] = tested on: EGFR signaling (phosphorylation of EGFR, AKT, ERK); assay: EGF-induced EGFR signaling (western blot) in HCT116 cells; type: cell-based, human; settings: for EGF-induced phosphorylation of EGFR, AKT and ERK: HCT116, EGF 100 ng/mL for 5 min
Source text: […] Cells were lysed with RIPA buffer, and the lysates were subjected to SDS-PAGE and visualized through western blotting using antibodies against PGRMC1, EGFR, phospho-Y1068 EGFR, AKT, phospho-S473AKT, ERK, and phospho-T185 Y187 ERK.

[5] = tested on: HuH7 cells; assay: Chemosensitivity MTT assay in HuH7 cells; type: cell-based, human
Description: The HCT116 cells, a human colon cancer cell line, and HuH7 cells, a human hepatoma cell line, were maintained in Dulbecco’s modified Eagle’s medium (DMEM) containing 10% fetal bovine serum (FBS) and 1% penicillin-streptomycin at 37 °C in a 5% CO2 humidified incubator. The PGRMC1 knockdown (KD) cell line was established in a previous study using lentivirus vectors.
To analyze the chemosensitivity of HCT116 or HuH7 cells, the cells were incubated with erlotinib (20 µM) or CDDP (10 µM) and either GL or GL derivatives for 24 h on a 96-well plate. Cell viability was determined using an MTT assay kit (Millipore, Burlington, MA, USA) according to the manufacturer’s instructions.

[6] = tested on: LDL uptake in HCT116 cells; assay: Alexa Fluor 488-labelled LDL uptake in HCT116 cells; type: cell-based, human; settings: HCT116, microscopy and flow cytometry, 5 min
Description: as §1

[7] = biological target: T2, interaction between PGRMC1 and EGFR (Homo sapiens, UniProt O00264); assay: Co-immunoprecipitation of PGRMC1 and EGFR in HuH7 cells; type: cell-based; settings: HuH7, FLAG-PGRMC1 co-IP, 12 h treatment
T2 construct: mammalian FLAG-tagged expression vector pCMV-FLAG-PGRMC1 (full-length); expressed in transfected cells; host or cells: HCT116 or HuH7
T2 sequence (O00264 whole entry): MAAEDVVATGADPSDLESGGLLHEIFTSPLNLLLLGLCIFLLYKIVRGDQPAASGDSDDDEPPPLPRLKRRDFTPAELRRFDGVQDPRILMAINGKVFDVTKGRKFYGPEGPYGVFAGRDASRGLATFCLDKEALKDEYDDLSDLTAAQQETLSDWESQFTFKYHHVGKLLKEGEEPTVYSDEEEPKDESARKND
Description: An expression vector of pCMV-3xFLAG-PGRMC1 or an empty vector was transfected into HCT116 cells or HuH7 cells using the transfection reagent Lipofectamine 2000 (Invitrogen). The cells were incubated overnight with either GL or GlucoGL. Cells were then lysed with NP40 lysis buffer (20 mM Tris-HCl [pH 7.5], 150 mM NaCl, and 1% NP40). The lysates were incubated with 10 μL of equilibrated anti-FLAG (M2) agarose for 60 min at room temperature. Bound proteins were washed three times and subjected to SDS-PAGE and visualized through western blotting using antibodies against FLAG, EGFR, and LDLR. For analysis of the endogenous PGRMC1-binding with FLAG-PGRMC1, HCT116 cells (1 × 10^7 cells) were treated with vehicle or 250 μM SA and/or 10 μM hemin for 48 h, and the cell lysates were co-immunoprecipitated with anti-FLAG (M2) agarose. Bound proteins (endogenous PGRMC1 and FLAG-tagged PGRMC1) were visualized through western blotting using antibody against PGRMC1.

[8] = biological target: T3, heme-dimerized PGRMC1 (Homo sapiens, UniProt O00264); assay: ITC binding to heme-dimerized PGRMC1; settings: for Kd / TΔS / ΔG / ΔH: ITC; for Kd: 298 K, 50 mM phosphate pH 7.0, heme-dimerized PGRMC1 (WT); for TΔS / ΔG / ΔH: heme-dimerized PGRMC1 (WT)
T3 construct: human PGRMC1 intracellular domain residues 43-195; GST (N, cleaved yes); made in house; host or cells: E. coli BL21 (DE3)
T3 sequence (O00264 43-195): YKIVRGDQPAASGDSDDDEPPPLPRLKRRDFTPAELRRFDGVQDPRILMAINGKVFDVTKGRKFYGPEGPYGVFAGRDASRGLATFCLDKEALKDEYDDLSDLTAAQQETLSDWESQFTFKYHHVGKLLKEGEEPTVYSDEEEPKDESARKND
Description: Expression vectors for PGRMC1 point mutants were generated by site-directed mutagenesis with PCR.
Protein expression was induced by adding 1 mM isopropyl-β-thiogalactopyranoside (IPTG) and incubating at 37 °C for 4 h. After harvesting cells, the cell pellets were then resuspended in buffer containing 20 mM Tris-HCl (pH 7.5), 100 mM NaCl, and 0.1% Tween 20, sonicated twice at 4 °C for 5 min, and centrifuged at 20,000× g for 30 min. The supernatant was incubated with glutathione Sepharose 4B (GE Healthcare, Chicago, IL, USA) for 1 h at 4 °C. The resin was then washed five times with the same buffer, and the GST tag cleaved by adding Precision Protease (GE Healthcare) and incubating at 4 °C for 16 h. Apo-PGRMC1 or HMGB1 proteins was purified using size-exclusion chromatography in a Superdex 200 column (GE Healthcare). Heme-bound PGRMC1 was prepared by treating with 100 μM hemin and then purified using size-exclusion chromatography.
GL derivatives were dissolved in 3 mM ITC-Buffer and titrated into 100 μM apo-PGRMC1, heme-bound-PGRMC1, or HMGB1 protein. Titration was performed by injecting 2 µL of the syringe solution at intervals of 120 s. Binding isotherms were analyzed using SEDPHAT [35]. The binding of AG205 to apo- or heme-PGRMC1 (100 μM) was analyzed using a concentration of 3 mM containing 1% DMSO.

[9] = tested on: HCT116 cells; assay: Chemosensitivity MTT assay in HCT116 cells; type: cell-based, human; settings: Homo sapiens, HCT-116, HCT116 cell viability, MTT
[10] = biological target: T4, EGFR kinase (Homo sapiens, UniProt P00533); assay: EGFR kinase assay in vitro; type: biochemical; settings: Kinase-Glo, erlotinib 100nM
T4 construct: purchased BPS Bioscience
T4 sequence (P00533 25-1210): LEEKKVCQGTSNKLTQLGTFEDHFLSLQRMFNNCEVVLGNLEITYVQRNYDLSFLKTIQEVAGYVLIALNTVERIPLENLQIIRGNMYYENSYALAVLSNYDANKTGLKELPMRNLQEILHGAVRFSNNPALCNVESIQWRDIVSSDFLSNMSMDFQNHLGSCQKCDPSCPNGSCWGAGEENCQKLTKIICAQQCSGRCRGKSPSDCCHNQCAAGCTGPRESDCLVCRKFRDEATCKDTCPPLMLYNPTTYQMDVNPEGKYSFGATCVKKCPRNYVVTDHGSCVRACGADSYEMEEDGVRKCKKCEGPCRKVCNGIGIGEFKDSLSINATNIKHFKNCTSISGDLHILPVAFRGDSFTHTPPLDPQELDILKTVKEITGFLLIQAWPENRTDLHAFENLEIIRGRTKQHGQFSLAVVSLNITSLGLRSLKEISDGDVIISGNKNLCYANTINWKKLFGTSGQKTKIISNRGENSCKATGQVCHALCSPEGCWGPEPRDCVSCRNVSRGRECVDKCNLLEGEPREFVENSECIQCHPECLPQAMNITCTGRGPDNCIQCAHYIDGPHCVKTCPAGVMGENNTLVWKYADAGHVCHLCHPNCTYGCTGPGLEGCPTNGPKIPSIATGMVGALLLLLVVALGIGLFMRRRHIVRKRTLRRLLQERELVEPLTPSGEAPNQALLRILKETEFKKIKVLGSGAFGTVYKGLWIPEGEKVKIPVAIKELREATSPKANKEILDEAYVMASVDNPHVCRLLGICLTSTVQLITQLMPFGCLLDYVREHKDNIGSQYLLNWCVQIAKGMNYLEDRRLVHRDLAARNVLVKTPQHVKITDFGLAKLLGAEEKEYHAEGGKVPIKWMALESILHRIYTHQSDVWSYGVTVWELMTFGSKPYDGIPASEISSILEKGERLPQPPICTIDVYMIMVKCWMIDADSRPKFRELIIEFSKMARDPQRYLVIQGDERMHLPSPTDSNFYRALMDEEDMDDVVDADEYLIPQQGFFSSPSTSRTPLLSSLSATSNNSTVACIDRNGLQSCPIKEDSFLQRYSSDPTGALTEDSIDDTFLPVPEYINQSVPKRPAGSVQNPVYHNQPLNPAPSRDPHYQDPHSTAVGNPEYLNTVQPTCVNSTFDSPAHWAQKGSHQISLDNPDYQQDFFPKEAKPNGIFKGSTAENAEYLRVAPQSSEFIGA
Description: The assay was performed using an EGFR kinase assay kit (BPS Bioscience, San Diego, CA, USA). EGFR kinase activity was analyzed by measuring the amount of ATP remaining following the kinase reaction based on luminescent intensity using Kinase-Glo MAX (Promega, Madison, WI, USA). A mixture of kinase buffer, ATP, and PTK substrate was incubated with EGFR (1 ng/µL) with or without GL or GlucoGL at 30 °C for 40 min. Kinase-Glo max was added to each well and incubated at room temperature for 15 min under light protection. Luminescent intensity was measured using a microplate reader.

[11] = with CDDP (10 µM), read-out: IC50 CDDP
[12] = with erlotinib (20 µM), read-out: IC50 Erlotinib

Compound	EGF signaling [1]	Interaction between PGRMC1 and CYP3A4 [2]	Uptake of labelled EGF [3]	EGF-induced phosphorylation of EGFR, AKT and ERK [4]	EGF signaling, time-course ([4]; HCT116, early phase of EGF stimulation (5 or 10 min))	Cell viability with erlotinib or CDDP [5]	Labelled-LDL uptake [6]	Interaction between PGRMC1 and EGFR [7]	Kd [8]	TΔS [8]	ΔG [8]	ΔH [8]	IC50 [9, 11]	IC50 [9, 12]	EGFR kinase activity [10]	Binding to heme-dimerized PGRMC1 relative to binding to HMGB1 ([8]; ratio of KD HMGB1 / PGRMC1)
CC1(C(=O)O)CCC2(C)CCC3(C)C(=CC(=O)C4C5(C)CCC(OC6OC(C(=O)O)C(O)C(O)C6OC6OC(CO)C(O)C(O)C6O)C(C)(C)C5CCC43C)C2C1 (stereo not drawn) [Glucoglycyrrhizin (GlucoGL), Glucoglycyrrhizin]	suppressed the EGF signaling	interfered with the interaction	significantly suppressed	significantly suppressed	remarkable inhibitory effect	significantly suppressed cell viability	significantly suppressed	inhibited the interaction	1.38 µM	7.44 K·kcal/mol	-8.00 kcal/mol	-0.56 kcal/mol	14.9 µM	15.7 µM	no inhibitory effect	
CC1(C)[C@@H](O[C@H]2O[C@H](C(=O)O)[C@@H](O)[C@H](O)[C@H]2O[C@@H]2O[C@H](C(=O)O)[C@@H](O)[C@H](O)[C@H]2O)CC[C@]2(C)[C@H]3C(=O)C=C4[C@@H]5C[C@@](C)(C(=O)O)CC[C@]5(C)CC[C@@]4(C)[C@]3(C)CC[C@@H]12 [Glycyrrhizin (GL), Glycyrrhizin]	suppressed the EGF signaling	interfered with the interaction	significantly suppressed	significantly suppressed		significantly suppressed cell viability	significantly suppressed	inhibited the interaction	52.7 µM	4.61 K·kcal/mol	-5.84 kcal/mol	-1.23 kcal/mol	53.1 µM	52 µM	no inhibitory effect	4.23 times
